One block for each compound: values may come before it.
Experiments:
[1] = biological target: T1, von Hippel-Lindau disease tumor suppressor/SWI/SNF-related matrix-associated actin-dependent regulator of chromatin subfamily A member 4 (Homo sapiens, UniProt P51532+P40337); assay: PROTAC activity at VHL/SMARCA4 in human RKO cells assessed as degradation of SMARCA4; format: cell-based
[2] = biological target: T1, von Hippel-Lindau disease tumor suppressor/SWI/SNF-related matrix-associated actin-dependent regulator of chromatin subfamily A member 4; assay: PROTAC activity at VHL/SMARCA4 in human RKO cells assessed as maximal degradation of SMARCA4 at 10 nM relative to control; format: cell-based
[3] = biological target: Protein cereblon/Bromodomain-containing protein 2 (Homo sapiens) (UniProt P25440+Q96SW2); assay: PROTAC activity at CRBN/BRD2 in human MV4-11 cells assessed as maximal degradation of BRD2 protein level at 0.5 uM incubated for 4 hrs by Western blotting assay relative to control; format: cell-based
MV4-11 = assay: Antitumor activity against human MV4-11 cells xenografted in BALB/c nude mouse assessed as tumor growth inhibition at 25 mg/kg, po administered once daily for 17 days relative to control; format: functional; conditions: MV4-11, 408 h, time 17 day, read-out: TGI
[4] = biological target: Protein cereblon/Poly [ADP-ribose] polymerase 1 (Homo sapiens, UniProt P09874+Q96SW2); assay: PROTAC activity at CRBN/PARP1 in human SW620 cells assessed as degradation of PARP1 measured after 24 hrs by Western blot analysis; format: cell-based
[5] = biological target: T2, von Hippel-Lindau disease tumor suppressor/Serine/threonine-protein kinase ATR (Homo sapiens) (UniProt Q13535+P40337); assay: PROTAC activity at […]/VHL in […] human HCT-116 cells assessed as maximum protein degradation at 5 uM measured after 24 hrs by immunoblot analysis relative to control; format: cell-based
[6] = biological target: T2, von Hippel-Lindau disease tumor suppressor/Serine/threonine-protein kinase ATR (Homo sapiens); assay: PROTAC activity at […]/VHL in human LoVo cells assessed as maximum protein degradation at 5 uM measured after 24 hrs by immunoblot analysis relative to control; format: cell-based
LoVo [7] = assay: Antitumor activity against human LoVo cells xenografted in BALB/c mouse assessed as tumor growth inhibition at 25 mg/kg, ip administered once daily for 14 days relative to control; format: functional; conditions: 336 h, time 14 day, read-out: TGI
LoVo [8] = assay: Antitumor activity against human LoVo cells xenografted in BALB/c mouse assessed as tumor growth inhibition at 50 mg/kg, ip administered once daily for 14 days relative to control; format: functional; conditions: 336 h, time 14 day, read-out: TGI
[9] = biological target: T3, von Hippel-Lindau disease tumor suppressor/SWI/SNF-related matrix-associated actin-dependent regulator of chromatin subfamily A member 2 (Homo sapiens, UniProt P51531+P40337); assay: PROTAC activity at VHL/SMARCA2 in human RKO cells assessed as degradation of SMARCA2 incubated for 18 hrs by Western blot analysis; format: cell-based
MOLT-4 = assay: Antiproliferative activity against human MOLT-4 cells assessed as reduction in cell viability incubated for 72 hrs by CellTiter-Glo Luminescent assay; format: functional, cell-based; conditions: MOLT-4, 72 h
[10] = biological target: T3, von Hippel-Lindau disease tumor suppressor/SWI/SNF-related matrix-associated actin-dependent regulator of chromatin subfamily A member 2; assay: PROTAC activity at VHL/SMARCA2 in human MV4-11 cells assessed as induction of SMARCA2 degradation at 10 uM by measuring maximal efficacy incubated for 20 hrs by Western blotting analysis relative to control; format: cell-based
[11] = biological target: T4, Protein cereblon/Wee1-like protein kinase (Homo sapiens) (UniProt P30291+Q96SW2); assay: PROTAC activity at CRBN/Wee1 in human MV4-11 cells assessed as maximal degradation of Wee1 at 1 uM measured after 2 hrs by Western blot analysis relative to control; format: cell-based
[12] = biological target: T4, Protein cereblon/Wee1-like protein kinase (Homo sapiens); assay: PROTAC activity at CRBN/Wee1 in human MV4-11 cells assessed as maximal degradation of Wee1 at 100 nM measured after 2 hrs by Western blot analysis relative to control; format: cell-based
[13] = biological target: Protein cereblon/Cyclin-dependent kinase 12 (Homo sapiens) (UniProt Q9NYV4+Q96SW2); assay: PROTAC activity at CRBN/CDK12 in human HeLa cells assessed as maximal degradation of CDK12 at 1 uM measured after 24 hrs by Western blot analysis relative to control; format: cell-based

T4 sequence (P30291 whole entry, looked up): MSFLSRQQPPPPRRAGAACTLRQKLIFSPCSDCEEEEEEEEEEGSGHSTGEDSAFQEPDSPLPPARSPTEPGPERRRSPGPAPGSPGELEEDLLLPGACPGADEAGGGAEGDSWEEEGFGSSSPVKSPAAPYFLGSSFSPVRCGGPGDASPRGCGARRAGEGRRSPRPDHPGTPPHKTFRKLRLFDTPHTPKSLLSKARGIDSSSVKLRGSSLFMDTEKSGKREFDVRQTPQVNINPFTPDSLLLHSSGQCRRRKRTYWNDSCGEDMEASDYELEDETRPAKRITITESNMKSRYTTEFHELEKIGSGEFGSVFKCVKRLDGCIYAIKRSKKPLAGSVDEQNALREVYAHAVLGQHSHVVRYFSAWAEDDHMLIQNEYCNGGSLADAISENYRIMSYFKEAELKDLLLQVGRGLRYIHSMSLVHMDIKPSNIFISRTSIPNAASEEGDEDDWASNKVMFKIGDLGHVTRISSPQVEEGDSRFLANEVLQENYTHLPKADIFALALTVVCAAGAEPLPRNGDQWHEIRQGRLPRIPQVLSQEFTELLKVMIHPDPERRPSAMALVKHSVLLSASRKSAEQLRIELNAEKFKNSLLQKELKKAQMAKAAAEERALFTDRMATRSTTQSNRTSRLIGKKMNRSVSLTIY
T4 sequence (Q96SW2 whole entry, looked up): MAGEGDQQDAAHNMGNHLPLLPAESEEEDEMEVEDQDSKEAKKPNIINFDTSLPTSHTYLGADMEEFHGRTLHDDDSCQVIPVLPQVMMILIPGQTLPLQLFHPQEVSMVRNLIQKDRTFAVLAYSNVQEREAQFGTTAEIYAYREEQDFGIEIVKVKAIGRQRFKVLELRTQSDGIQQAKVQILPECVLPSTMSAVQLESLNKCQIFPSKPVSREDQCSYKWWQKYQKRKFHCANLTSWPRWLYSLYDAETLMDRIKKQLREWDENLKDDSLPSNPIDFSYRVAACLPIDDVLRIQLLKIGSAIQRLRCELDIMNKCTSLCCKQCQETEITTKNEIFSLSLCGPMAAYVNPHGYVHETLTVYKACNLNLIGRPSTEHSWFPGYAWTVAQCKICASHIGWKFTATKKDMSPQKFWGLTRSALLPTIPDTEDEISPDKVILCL
T2 sequence (P40337 whole entry, looked up): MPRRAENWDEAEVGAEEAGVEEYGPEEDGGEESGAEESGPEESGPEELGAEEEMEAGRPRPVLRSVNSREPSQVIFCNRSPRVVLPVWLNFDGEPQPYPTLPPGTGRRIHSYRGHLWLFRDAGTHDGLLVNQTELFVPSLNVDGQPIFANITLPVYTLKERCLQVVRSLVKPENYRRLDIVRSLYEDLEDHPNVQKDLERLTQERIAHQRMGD
T2 sequence (Q13535 whole entry, looked up): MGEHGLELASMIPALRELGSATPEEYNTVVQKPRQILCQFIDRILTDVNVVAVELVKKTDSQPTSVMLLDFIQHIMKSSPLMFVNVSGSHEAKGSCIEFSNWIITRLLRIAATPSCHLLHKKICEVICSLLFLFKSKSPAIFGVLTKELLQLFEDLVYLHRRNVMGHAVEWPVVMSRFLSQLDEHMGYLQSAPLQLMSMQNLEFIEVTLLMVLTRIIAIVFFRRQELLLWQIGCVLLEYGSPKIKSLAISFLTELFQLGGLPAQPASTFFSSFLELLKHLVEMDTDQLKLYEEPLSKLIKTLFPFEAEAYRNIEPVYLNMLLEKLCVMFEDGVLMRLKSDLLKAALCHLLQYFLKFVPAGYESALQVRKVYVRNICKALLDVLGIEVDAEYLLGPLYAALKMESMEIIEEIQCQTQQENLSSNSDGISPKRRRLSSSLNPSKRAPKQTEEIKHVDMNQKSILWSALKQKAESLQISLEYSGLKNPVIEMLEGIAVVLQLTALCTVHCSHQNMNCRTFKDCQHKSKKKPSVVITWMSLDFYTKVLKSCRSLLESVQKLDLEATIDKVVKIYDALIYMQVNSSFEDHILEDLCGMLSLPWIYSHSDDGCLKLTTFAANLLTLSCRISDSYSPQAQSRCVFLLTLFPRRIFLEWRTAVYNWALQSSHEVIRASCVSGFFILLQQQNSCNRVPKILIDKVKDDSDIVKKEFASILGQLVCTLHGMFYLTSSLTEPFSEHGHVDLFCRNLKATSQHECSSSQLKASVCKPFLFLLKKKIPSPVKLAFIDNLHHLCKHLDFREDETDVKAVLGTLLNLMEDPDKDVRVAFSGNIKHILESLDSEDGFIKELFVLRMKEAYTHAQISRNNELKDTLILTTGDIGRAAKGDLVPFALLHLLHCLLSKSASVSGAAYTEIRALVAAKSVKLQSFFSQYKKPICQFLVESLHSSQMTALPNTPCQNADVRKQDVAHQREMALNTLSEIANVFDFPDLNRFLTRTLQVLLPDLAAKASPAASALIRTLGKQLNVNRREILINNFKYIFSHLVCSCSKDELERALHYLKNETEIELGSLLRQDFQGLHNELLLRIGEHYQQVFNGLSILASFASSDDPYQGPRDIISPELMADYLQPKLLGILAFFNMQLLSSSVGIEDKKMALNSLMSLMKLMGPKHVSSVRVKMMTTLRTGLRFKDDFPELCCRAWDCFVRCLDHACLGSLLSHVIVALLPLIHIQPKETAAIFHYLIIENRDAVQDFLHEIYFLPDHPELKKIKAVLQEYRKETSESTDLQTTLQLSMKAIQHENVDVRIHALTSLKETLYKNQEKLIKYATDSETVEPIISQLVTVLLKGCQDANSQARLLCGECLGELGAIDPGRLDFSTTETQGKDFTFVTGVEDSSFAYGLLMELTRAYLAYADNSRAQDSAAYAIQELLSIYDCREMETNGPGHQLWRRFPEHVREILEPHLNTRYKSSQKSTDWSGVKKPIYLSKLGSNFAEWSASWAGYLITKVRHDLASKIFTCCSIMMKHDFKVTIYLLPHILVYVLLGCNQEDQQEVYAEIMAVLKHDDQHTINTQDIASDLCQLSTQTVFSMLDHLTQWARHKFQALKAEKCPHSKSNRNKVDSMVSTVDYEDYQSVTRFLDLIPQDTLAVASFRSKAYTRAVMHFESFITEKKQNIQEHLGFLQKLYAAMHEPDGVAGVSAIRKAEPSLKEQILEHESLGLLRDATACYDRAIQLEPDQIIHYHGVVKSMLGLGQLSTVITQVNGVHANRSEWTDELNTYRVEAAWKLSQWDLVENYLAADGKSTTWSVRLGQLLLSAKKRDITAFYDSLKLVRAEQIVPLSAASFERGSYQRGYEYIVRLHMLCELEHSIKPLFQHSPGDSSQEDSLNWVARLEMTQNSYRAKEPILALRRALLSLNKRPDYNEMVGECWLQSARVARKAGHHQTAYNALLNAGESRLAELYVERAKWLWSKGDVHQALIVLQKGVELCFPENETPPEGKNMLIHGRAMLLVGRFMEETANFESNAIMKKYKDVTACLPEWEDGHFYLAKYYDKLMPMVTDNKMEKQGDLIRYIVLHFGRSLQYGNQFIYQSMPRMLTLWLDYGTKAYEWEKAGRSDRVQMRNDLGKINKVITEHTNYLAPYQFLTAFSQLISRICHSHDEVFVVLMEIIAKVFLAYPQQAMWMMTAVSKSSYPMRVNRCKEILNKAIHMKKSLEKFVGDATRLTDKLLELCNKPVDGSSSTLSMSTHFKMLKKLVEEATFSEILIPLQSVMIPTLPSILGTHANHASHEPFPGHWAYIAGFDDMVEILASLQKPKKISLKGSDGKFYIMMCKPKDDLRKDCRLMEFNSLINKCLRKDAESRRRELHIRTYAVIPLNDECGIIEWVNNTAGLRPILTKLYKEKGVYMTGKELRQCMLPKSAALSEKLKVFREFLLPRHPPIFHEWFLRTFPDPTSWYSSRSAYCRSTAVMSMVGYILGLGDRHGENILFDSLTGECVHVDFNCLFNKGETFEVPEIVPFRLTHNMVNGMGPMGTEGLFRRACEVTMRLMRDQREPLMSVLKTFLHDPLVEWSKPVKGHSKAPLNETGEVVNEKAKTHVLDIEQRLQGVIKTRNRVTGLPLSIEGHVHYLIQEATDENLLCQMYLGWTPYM
Protein cereblon/Poly [ADP-ribose] polymerase 1, sequence (P09874 whole entry): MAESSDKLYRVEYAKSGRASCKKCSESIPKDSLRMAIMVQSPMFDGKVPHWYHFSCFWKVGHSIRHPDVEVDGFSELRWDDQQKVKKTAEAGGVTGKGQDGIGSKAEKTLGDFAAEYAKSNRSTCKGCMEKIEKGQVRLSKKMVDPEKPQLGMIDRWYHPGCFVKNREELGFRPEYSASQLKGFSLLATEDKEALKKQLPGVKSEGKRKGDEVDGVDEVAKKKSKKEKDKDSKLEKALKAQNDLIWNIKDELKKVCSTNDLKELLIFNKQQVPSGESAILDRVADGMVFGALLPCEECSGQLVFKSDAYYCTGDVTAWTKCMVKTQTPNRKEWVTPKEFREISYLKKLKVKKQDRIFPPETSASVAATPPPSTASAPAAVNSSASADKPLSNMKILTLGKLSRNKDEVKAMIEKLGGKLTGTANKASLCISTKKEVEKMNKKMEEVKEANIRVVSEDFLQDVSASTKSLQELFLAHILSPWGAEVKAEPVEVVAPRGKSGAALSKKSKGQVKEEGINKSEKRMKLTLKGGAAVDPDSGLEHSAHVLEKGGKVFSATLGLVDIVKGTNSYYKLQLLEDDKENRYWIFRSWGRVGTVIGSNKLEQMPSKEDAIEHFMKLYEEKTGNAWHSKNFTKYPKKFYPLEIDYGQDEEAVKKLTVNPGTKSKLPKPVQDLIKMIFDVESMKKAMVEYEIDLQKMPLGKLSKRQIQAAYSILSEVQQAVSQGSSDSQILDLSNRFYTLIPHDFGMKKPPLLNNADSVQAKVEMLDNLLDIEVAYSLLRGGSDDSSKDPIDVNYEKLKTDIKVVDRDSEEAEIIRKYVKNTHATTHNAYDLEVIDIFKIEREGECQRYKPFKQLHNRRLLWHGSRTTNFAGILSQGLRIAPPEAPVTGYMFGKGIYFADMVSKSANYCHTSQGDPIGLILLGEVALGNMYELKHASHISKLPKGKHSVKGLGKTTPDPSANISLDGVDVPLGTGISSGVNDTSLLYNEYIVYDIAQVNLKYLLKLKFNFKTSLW
Protein cereblon/Poly [ADP-ribose] polymerase 1, sequence (Q96SW2 whole entry): as the sequence (Q96SW2 whole entry, looked up) above

DC50 [1]: 0.078 µM
Emax [2]: 46%
Structure (SMILES): Cc1ncsc1-c1ccc(CNC(=O)[C@@H]2C[C@@H](O)CN2C(=O)[C@@H](NC(=O)C2(F)CC2)C(C)(C)C)c(OCCCN2CCC(c3ccc4c(c3)n(C3CCCC3)c3nc(=O)c5c(Br)cccc5n43)CC2)c1

Emax [3]: > 50%
Structure (SMILES): Nc1ncc(-c2ccc(C(=O)N3CCN(CCCCC(=O)Nc4cccc5c4C(=O)N(C4CCC(=O)NC4=O)C5=O)CC3)cc2)nc1C(=O)Nc1ccccc1 (configuration not stated)
inhibition in vivo at 25 mg/kg (MV4-11): 57%

DC50 [4]: 5.4 µM
Structure (SMILES): O=C(CCCCCCCCCCC(=O)c1cc(Cc2n[nH]c(=O)c3ccccc23)ccc1F)Cc1cccc2c1CN(C1CCC(=O)NC1=O)C2=O (configuration not stated)

Emax [5]: > 80%
Emax [6]: > 80%
Structure (SMILES): C[C@H]1COCCN1c1cc(C2([S@](C)(=O)=NC(=O)CCc3cn(CCCCCCCC(=O)Nc4cccc5c4C(=O)N(C4CCC(=O)NC4=O)C5=O)nn3)CC2)nc(-c2ccnc3[nH]ccc23)n1 (some centres not stated)
inhibition in vivo at 25 mg/kg (LoVo [7]): 35.9%
inhibition in vivo at 50 mg/kg (LoVo [8]): 51.8%

DC50 [9]: 0.002 µM
Emax [2]: 77%
Structure (SMILES): Cc1ncsc1-c1ccc([C@@H](CCCN2CCC(c3ccc4c(c3)n(C3CCCC3)c3nc(=O)c5c(Br)cccc5n43)CC2)NC(=O)[C@@H]2C[C@@H](O)CN2C(=O)[C@@H](NC(=O)C2(F)CC2)C(C)(C)C)cc1

IC50 (MOLT-4): 0.8 µM
Structure (SMILES): C=CCn1c(=O)c2cnc(Nc3ccc(N4CCN(C)CC4)cc3)nc2n1-c1cccc(C(C)(C)O)n1 [ADAVOSERTIB]

Emax [10]: > 95%
Structure (SMILES): COc1ccc(C(=O)/C=C/C(=O)N2CCN(c3cc(-c4ccccc4O)nnc3N)CC2)cc1

Emax [11]: > 70%
Structure (SMILES): C=CCn1c(=O)c2cnc(Nc3ccc(N4CCN(CCCC(=O)N[C@H](C(=O)N5C[C@H](O)C[C@H]5C(=O)NCc5ccc(-c6scnc6C)cc5)C(C)(C)C)CC4)cc3)nc2n1-c1cccc(C(C)(C)O)n1

Emax [12]: 50%
IC50 (MOLT-4): 0.39 µM
Structure (SMILES): C=CCn1c(=O)c2cnc(Nc3ccc(N4CCN(CCCNc5cccc6c5C(=O)N(C5CCC(=O)NC5=O)C6=O)CC4)cc3)nc2n1-c1cccc(C(C)(C)O)n1 (configuration not stated)

Emax [13]: > 80%
Structure (SMILES): C=CCn1c(=O)c2cnc(Nc3ccc(N4CCN(CCCC(=O)NCCOCCOCCNc5cccc6c5C(=O)N(C5CCC(=O)NC5=O)C6=O)CC4)cc3)nc2n1-c1cccc(C(C)(C)O)n1 (configuration not stated)

— ChEMBL document CHEMBL5543165, “Recent Progress in DNA Damage Response-Targeting PROTAC Degraders” (J Med Chem, 2024)
